Source: article PMC5532286, “In silico, in vitro, X-ray crystallography, and integrated strategies for discovering spermidine synthase inhibitors for Chagas disease” (Scientific Reports, 2017)
Like-named read-outs stand apart in the source and are kept apart here.

Experiments:
TcSpdSyn [1] = target: T1, TcSpdSyn (Trypanosoma cruzi, UniProt Q4DA73); assay: biochemical; type: biochemical; settings: for Hill (4PL curve fitting parameter) / Max (4PL curve fitting parameter, inhibition%) / min (4PL curve fitting parameter, inhibition%) / LoggedX50 (4PL curve fitting parameter): Supplementary Table 3; for LoggedX50 (4PL curve fitting parameter): Log10 of X50
T1 sequence (Q4DA73 entry or part of it): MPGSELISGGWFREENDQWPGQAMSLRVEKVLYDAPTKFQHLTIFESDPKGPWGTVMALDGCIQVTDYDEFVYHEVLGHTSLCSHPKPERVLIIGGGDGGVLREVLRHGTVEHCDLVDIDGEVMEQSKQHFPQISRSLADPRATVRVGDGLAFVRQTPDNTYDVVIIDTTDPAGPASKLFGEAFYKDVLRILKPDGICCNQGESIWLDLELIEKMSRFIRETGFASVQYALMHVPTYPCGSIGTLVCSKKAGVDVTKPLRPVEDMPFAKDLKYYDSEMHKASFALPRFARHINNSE
Description: To identify TcSpdSyn inhibitors, we performed an in vitro enzyme inhibition assay on 176 compounds sourced from the chemical compound library at Astellas Pharma.
The TcSpdSyn inhibition assay was performed essentially as previously[27] described. Briefly, the assay was an enzyme-coupled assay incorporating spermidine/spermine N(1)-acetyltransferase 1 (SSAT1). 7-Diethylamino-3-(4-maleimidylphenyl)-4-methylcoumarin (CPM) (cat. D-346, Thermo Fischer Scientific) was used to measure the coenzyme A produced by the SSAT1 reaction. […] The fluorescence signal was then detected in a plate reader (Paradigm, Molecular Devices Inc.) with excitation at 405 nm and emission at 530 nm. Each IC50 value was measured using eight different concentrations in quadruplicate. […] Compounds 1, 3, and 4 were used in their salt forms, whereas compound 2 was used in its free form. The corresponding salts were oxalic acid for compound 1 and HCl for compounds 3 and 4. These compounds were dissolved in dimethyl sulfoxide (DMSO), and the maximum final DMSO concentration in the assays was 1.3%.
Supplementary Figure 3. The fitting curve for IC50 calculation of the compounds on Table 1 (Compounds 1, 2, 3, 4, and 4MCHA correspond to (a), (b), (c), (d) and (e), respectively). The vertical line and horizontal axis's represent inhibition% for TcSpdSyn and compound concentration. The closed circles show the inhibition% measured at each dose. The error bars indicate the standard error of the inhibition% measured at each dose. For curve fitting, the following four paramter logoistic (4PL) model1 is used. The paramter […]

TcSpdSyn [2] = target: T1, TcSpdSyn; design: method as in PMID 26327378; settings: cited from earlier work

Compound | Hill (4PL curve fitting parameter) (TcSpdSyn [1]) | Max (4PL curve fitting parameter, inhibition%) (TcSpdSyn [1]) | min (4PL curve fitting parameter, inhibition%) (TcSpdSyn [1]) | LoggedX50 (4PL curve fitting parameter) (TcSpdSyn [1]) | IC50 (TcSpdSyn [1]; read-out: IC50 for TcSpdSyn) [µM] | IC50 (TcSpdSyn [1]) [µM] | IC50 (TcSpdSyn [2]) [µM]
O=c1nc(Nc2nc(O)nc(O)n2)sc2ccccc12 [Compound 2, 2-[(4,6-dihydroxy-1,3,5-triazin-2-yl)amino]-4H-1,3-benzothiazin-4-one] | 1.27 | 100.00 | 0.00 | 1.46 | 28 |  | 
CCOc1ccc2c(c1)c(CCN)cn2CC [Compound 3, 2-(5-Ethoxy-1-ethyl-1H-indol-3-yl)ethanamine] | 1.44 | 100.00 | 0.00 | 2.05 |  | 113 | 
NCCc1ccccc1F [Compound 1, 2-(2-Fluorophenyl)ethanamine] | 0.90 | 100.00 | 0.00 | 2.09 |  | 124 | 
C[C@H]1CC[C@H](N)CC1 [Compound 4MCHA, trans-4-methylcyclohexylamine, reference compound] | 1.01 | 100.00 | 0.00 | 0.29 | 1.9 |  | 1.7
NCCc1ccc(O)c(O)c1 [Compound 4, 4-(2-Aminoethyl)-1,2-benzenediol] | 1.03 | 100.00 | 0.00 | 1.82 | 66 |  | 
